In patent US11643419B2, “Compositions and methods for the treatment of xerostomia” (Cellix Bio Private Limited, priority 2016, dated 2023):
In brackets after ≈: the same amount, converted by molar mass. Like-named read-outs stand apart in the source and are kept apart here. One block for each compound: values may come before it.

How the values were obtained:
[1] = system: oral pathogenic microorganisms; details: cited from earlier work; for antimicrobial activity (in words): among long-chain fatty acids / against various oral microorganisms
C. albicans = details: cited from earlier work
Candida Species [2] = details: cited from earlier work
Candida Species [3] = experiment: MIC against Candida Species; assay type: cell-based; details: printed conversion of 0.45 μmoles/ml

Compound: CCCCC/C=C\C/C=C\C/C=C\CCCCC(=O)O [GLA, gamma linoleic acid]
antimicrobial activity (in words) [1]: antimicrobial activities
antimicrobial activity (in words) ([1]; listed as 7-linoleic acid): greatest antimicrobial activity
antimicrobial activity (in words) ([1]; listed as gamma linoleic acid): significant anti-microbial activity
bactericidal at a concentration of ([1]; n-6 fatty acids GLA): 25 µg/mL

MIC (Candida Species [3]): 0.13 µg/mL (≈ 0.464 µM)
Compound: CCCCC/C=C\C/C=C\CCCCCCCC(=O)O [Linoleic acid]
activity against C. albicans (C. albicans): < 40%
MIC (Candida Species [2]): 450 µM (≈ 126 µg/mL)
antimicrobial activity (in words) [1]: greatest antimicrobial activity
bactericidal at a concentration of ([1]; linoleic acid): 25 µg/mL

Compound: CCCCC/C=C\C/C=C\C/C=C\C/C=C\CCCC(=O)O [arachidonic acid]
antimicrobial activity (in words) [1]: greatest antimicrobial activity

Compound: CCCCCCCCCCCCCCCC(=O)O [palmitic acid]
antimicrobial activity (in words) [1]: greatest antimicrobial activity

Compound: CCCCCC/C=C\CCCCCCCC(=O)O [palmitoleic acid]
antimicrobial activity (in words) [1]: greatest antimicrobial activity
